Results: patent US11166899B2, “Composition for external application containing a ceramide, a derivative thereof and an extract of Hibisci cortex” (AMOREPACIFIC CORPORATION, priority 2017, dated 2021)

biological target: T1, PPARα (Homo sapiens, UniProt Q07869); experiment: PPARα activation of single ceramide derivatives, PPRE-luciferase reporter in transfected HaCaT cells (Test Example 1); format: cell-based; settings: 10 ppm, 24 hours, HaCaT transfected with PPRE reporter and PPARα plasmids; DMSO control = 100
T1 construct: expressed in transfected cells; host or cells: HaCaT (human keratinocyte cell line), transiently transfected
T1 sequence (Q07869 1-468): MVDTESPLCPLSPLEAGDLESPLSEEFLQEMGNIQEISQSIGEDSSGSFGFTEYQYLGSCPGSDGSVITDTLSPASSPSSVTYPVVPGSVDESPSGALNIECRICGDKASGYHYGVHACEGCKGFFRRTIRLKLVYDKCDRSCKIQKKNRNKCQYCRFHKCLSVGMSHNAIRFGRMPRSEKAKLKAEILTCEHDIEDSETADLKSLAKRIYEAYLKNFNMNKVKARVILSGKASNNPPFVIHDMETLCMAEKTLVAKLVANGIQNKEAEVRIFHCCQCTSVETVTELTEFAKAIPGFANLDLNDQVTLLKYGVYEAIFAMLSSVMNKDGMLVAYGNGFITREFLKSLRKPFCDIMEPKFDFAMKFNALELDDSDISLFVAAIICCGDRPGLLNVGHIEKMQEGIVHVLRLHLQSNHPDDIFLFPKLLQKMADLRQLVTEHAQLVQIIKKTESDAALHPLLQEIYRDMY
Description: HaCaT, which is a human keratinocyte cell line, was subcultured in DMEM medium containing 10% fetal bovine serum, which is a phenol red-free medium, in order to eliminate the effect caused by the phenol red's estrogen. The following plasmids were used: a plasmid having PPARα, PPARβ/δ and PPARγ genes downstream of a universal promoter which is expressed in general culture conditions; a plasmid having a PPARs response element (“PPRE”) as a promoter, which is activated by binding with ligand-bound PPARs, and a firefly luciferase gene serving as a reporter downstream of the promoter; and a reference plasmid having a β-galactosidase gene bound to a universal promoter.
HaCaT cells were seeded into a 24-well plate at a density of 5×10^4 cells/well, cultured for 24 hours, and then transiently transfected with the plasmid genes. After 24 hours of culture, the cells were washed with phosphate buffered saline (PBS), and then treated with the compounds prepared in Reference Examples 2-1 to 2-4, and Reference Examples 3-11 to 3-15 at a concentration of 10 ppm. As a positive control group, the cells were treated with a previously-known PPARs ligand (PPARα ligand Wy-14643) at a concentration of 10 μM. As a negative control group, a group treated with DMSO used to dissolve the samples was used. After 24 hours of culture, the cells were washed with PBS, harvested, and measured for luciferase activity.
Results obtained by transfecting the HaCaT cell line with the PPRE promoter reporter plasmid and the PPARα expression plasmid, followed by treating the transfected cells with drugs, and measuring the luciferase activity of the cells

Relative to Control Group (%) (luciferase activity)	Structure (SMILES)
255	CCCCCCCC/C=C\CCCCCCCC(=O)N(CCO)CC(O)CN(CCO)C(=O)CCCCCCC/C=C\CCCCCCCC [Reference Example 2-3, 1,3-bis(N-(2-hydroxyethyl)-oleoylamino)-2-hydroxypropane]
270	CCCCCCCCCCCC(=O)N(CCO)CC(O)CN(CCO)C(=O)CCCCCCCCCCC [Reference Example 2-2, 1,3-Bis(N-(2-Hydroxyethyl)-Lauroylamino)-2-Hydroxypropane]
278	CCCCCCCC/C=C\CCCCCCCCN(CC(C)OS(=O)(=O)[O-])C(=O)CCCCCCCCCCCCCCC.[Na+] (stereo not shown) [Reference Example 3-14, (N-oleyl-N-palmitoyl)-1-aminopropane-2-sodium sulfate]
260	CCCCCCCCCCCCCCCC(=O)N(CCO)CC(O)CNCCO (stereo not shown) [Reference Example 2-4, N,N′-bis(2-hydroxyethyl)-N-palmitoyl-N′-1,3-diamino-2-hydroxypropane]
259	CCCCCCCCCCCCCCCCN(CCOCCOP(=O)([O-])O)C(=O)CCCCCCCCCCCCCCC.[Na+] [Reference Example 3-13, (N-Hexadecyl-N-Palmitoyl)-1-Amino-2-Ethoxyethane-2-Sodium Phosphate]
263	CCCCCCCCCCCCCCCC(=O)N(CCO)CC(O)CN(CCO)C(=O)CCCCCCCCCCCCCCC [Reference Example 2-1, 1,3-bis(N-(2-hydroxyethyl)-palmitoylamino)-2-hydroxypropane]
269	CCCCCCCC/C=C\CCCCCCCCN(CC(C)(C)OS(=O)(=O)[O-])C(=O)CCCCCCCCCCCCCCC.[Na+] [Reference Example 3-15, (N-Oleyl-N-Palmitoyl)-1-Amino-2-Methylpropane-2-Sodium Sulfate]
270	CCCCCCCCCCCCCCCCN(CC(C)(C)OP(=O)([O-])[O-])C(=O)CCCCCCCCCCCCCCC.[Na+].[Na+] [Reference Example 3-12, (N-Hexadecyl-N-Palmitoyl)-1-Amino-2-Methylpropane-2-Sodium Phosphate]
272	CCCCCCCCCCCCCCCCN(CC(C)OP(=O)([O-])[O-])C(=O)CCCCCCCCCCCCCCC.[Na+].[Na+] (stereo not shown) [Reference Example 3-11, (N-hexadecyl-N-palmitoyl)-1-aminopropane-2-sodium phosphate]

same assay, conditions: positive control, 10 μM, 24 hours, HaCaT; DMSO control = 100

Relative to Control Group (%) (luciferase activity)	Structure (SMILES)
291	Cc1cccc(Nc2cc(Cl)nc(SCC(=O)O)n2)c1C [Wy-14643, reference compound]
